Ends that are not written are not given here.
System: HEK293-GLP-2R-Luc cells

## HGEGTFSSELATILDALAARDFINWLIATKITDKKKKKK-NH2 [glepaglutide]
Qvalue 1.61 × 10^−6
  log2 (TD/Ctrl) CPEB2: 1.107
  log2 (TD/Ctrl) GPAT3: 1.067
Qvalue 1.62 × 10^−11
  log2 (TD/Ctrl) LBH: 1.387
Qvalue 1.62 × 10^−22
  log2 (TD/Ctrl) CSRNP1: 2.05
Qvalue 1.63 × 10^−11
  log2 (TD/Ctrl) USP36: 1.039
Qvalue 1.71 × 10^−14
  log2 (TD/Ctrl) DNER: 3.018
Qvalue 1.72 × 10^−7
  log2 (TD/Ctrl) LOC102724428: 1.373
  log2 (TD/Ctrl) RELB: 1.9665
Qvalue 1.77 × 10^−4
  log2 (TD/Ctrl) BMF: −1.178
Qvalue 1.77 × 10^−11
  log2 (TD/Ctrl) PBX1: −1.095
Qvalue 1.80 × 10^−7
  log2 (TD/Ctrl) TNFAIP3: 1.227
Qvalue 1.83 × 10^−18
  log2 (TD/Ctrl) SCN9A: −1.8
Qvalue 1.84 × 10^−5
  log2 (TD/Ctrl) INPP5D: −2.417
Qvalue 1.87 × 10^−4
  log2 (TD/Ctrl) ICAM5: 1.744
Qvalue 1.87 × 10^−11
  log2 (TD/Ctrl) ZNF503: −1.2971
Qvalue 1.88 × 10^−5
  log2 (TD/Ctrl) MFSD2A: 1.193
Qvalue 1.89 × 10^−4
  log2 (TD/Ctrl) ADA: 1.023
Qvalue 1.91 × 10^−39
  log2 (TD/Ctrl) SV2C: 6.845
Qvalue 1.93 × 10^−15
  log2 (TD/Ctrl) ELL2: 1.192
Qvalue 1.93 × 10^−23
  log2 (TD/Ctrl) CD44: 2.115
Qvalue 1.97 × 10^−6
  log2 (TD/Ctrl) CYB5D2: −1.056
Qvalue 2.01 × 10^−5
  log2 (TD/Ctrl) DOK3: −1.636
Qvalue 2.01 × 10^−13
  log2 (TD/Ctrl) TFPI2: 2.377
Qvalue 2.02 × 10^−19
  log2 (TD/Ctrl) TUBB2A: 1.401
Qvalue 2.03 × 10^−14
  log2 (TD/Ctrl) SERTAD1: 1.452
Qvalue 2.06 × 10^−4
  log2 (TD/Ctrl) TRIM47: 1.231
Qvalue 2.06 × 10^−17
  log2 (TD/Ctrl) CD68: 2.012
Qvalue 2.07 × 10^−4
  log2 (TD/Ctrl) FRMPD4: −1.078
Qvalue 2.09 × 10^−50
  log2 (TD/Ctrl) ETV4: 3.646
Qvalue 2.12 × 10^−4
  log2 (TD/Ctrl) TUBA4A: 1.633
Qvalue 2.12 × 10^−19
  log2 (TD/Ctrl) SLC6A17: 2.784
Qvalue 2.21 × 10^−5
  log2 (TD/Ctrl) NAV2: 1.102
  log2 (TD/Ctrl) SOX2: −1.189
Qvalue 2.27 × 10^−19
  log2 (TD/Ctrl) IL6R: 1.742
Qvalue 2.28 × 10^−8
  log2 (TD/Ctrl) GPRC5A: 1.328
Qvalue 2.28 × 10^−9
  log2 (TD/Ctrl) SLC25A25: 1.117
Qvalue 2.29 × 10^−9
  log2 (TD/Ctrl) UPP1: 1.296
Qvalue 2.31 × 10^−9
  log2 (TD/Ctrl) OLIG2: 2.054
Qvalue 2.37 × 10^−34
  log2 (TD/Ctrl) TNC: 1.657
Qvalue 2.38 × 10^−8
  log2 (TD/Ctrl) GPR50: 2.002
Qvalue 2.40 × 10^−4
  log2 (TD/Ctrl) CPA4: 5.506
Qvalue 2.42 × 10^−6
  log2 (TD/Ctrl) FAM217B: −1.106
Qvalue 2.50 × 10^−4
  log2 (TD/Ctrl) CCDC9: 1.137
  log2 (TD/Ctrl) PLK3: 1.391
Qvalue 2.51 × 10^−19
  log2 (TD/Ctrl) TCIM: 7.037
Qvalue 2.55 × 10^−11
  log2 (TD/Ctrl) NRP1: −1.191
Qvalue 2.56 × 10^−11
  log2 (TD/Ctrl) EPHA2: 1.303
Qvalue 2.57 × 10^−12
  log2 (TD/Ctrl) DUSP4: 1.926
Qvalue 2.58 × 10^−27
  log2 (TD/Ctrl) MAFF: 3.639
Qvalue 2.58 × 10^−33
  log2 (TD/Ctrl) AMOT: −1.62
Qvalue 2.59 × 10^−23
  log2 (TD/Ctrl) TNFRSF12A: 2.183
Qvalue 2.68 × 10^−12
  log2 (TD/Ctrl) ZFP36: 1.676
Qvalue 2.71 × 10^−4
  log2 (TD/Ctrl) ARL14: 3.565
Qvalue 2.71 × 10^−23
  log2 (TD/Ctrl) JUNB: 2.192
Qvalue 2.74 × 10^−4
  log2 (TD/Ctrl) C1GALT1C1: −1.022
Qvalue 2.76 × 10^−6
  log2 (TD/Ctrl) UBALD2: 1.053
Qvalue 2.82 × 10^−4
  log2 (TD/Ctrl) ZNF33B: −1.021
Qvalue 2.87 × 10^−4
  log2 (TD/Ctrl) YPEL4: 2.621
Qvalue 2.87 × 10^−7
  log2 (TD/Ctrl) WNT5A: −1.332
Qvalue 2.88 × 10^−7
  log2 (TD/Ctrl) FLNC: 1.243
Qvalue 2.91 × 10^−8
  log2 (TD/Ctrl) NFIL3: 1.177
Qvalue 2.97 × 10^−31
  log2 (TD/Ctrl) TXNIP: −1.9141
Qvalue 2.98 × 10^−32
  log2 (TD/Ctrl) GLA: 1.68
Qvalue 3.01 × 10^−4
  log2 (TD/Ctrl) VAV1: 1.198
Qvalue 3.01 × 10^−9
  log2 (TD/Ctrl) RGS2: 1.337
Qvalue 3.01 × 10^−13
  log2 (TD/Ctrl) NREP: −1.339
Qvalue 3.15 × 10^−7
  log2 (TD/Ctrl) B3GAT1: 1.485
  log2 (TD/Ctrl) OLFM2: 1.732
Qvalue 3.17 × 10^−4
  log2 (TD/Ctrl) IL15RA: 1.677
Qvalue 3.27 × 10^−6
  log2 (TD/Ctrl) TNFRSF9: 1.903
Qvalue 3.31 × 10^−6
  log2 (TD/Ctrl) RASD1: 2.273
Qvalue 3.35 × 10^−6
  log2 (TD/Ctrl) TSC22D3: 1.67
Qvalue 3.37 × 10^−6
  log2 (TD/Ctrl) MSANTD3-TMEFF1: 1.009
Qvalue 3.39 × 10^−5
  log2 (TD/Ctrl) SKIDA1: −1.407
Qvalue 3.44 × 10^−6
  log2 (TD/Ctrl) USH1C: 2.547
Qvalue 3.45 × 10^−5
  log2 (TD/Ctrl) TMEM231: 1.1218
Qvalue 3.45 × 10^−9
  log2 (TD/Ctrl) COL12A1: 1.157
Qvalue 3.50 × 10^−4
  log2 (TD/Ctrl) BEGAIN: 1.974
Qvalue 3.51 × 10^−4
  log2 (TD/Ctrl) PHLDA2: 1.79
Qvalue 3.52 × 10^−9
  log2 (TD/Ctrl) PCDH7: −1.185
Qvalue 3.54 × 10^−4
  log2 (TD/Ctrl) ULBP2: 1.312
Qvalue 3.56 × 10^−4
  log2 (TD/Ctrl) PHF21B: 1.711
Qvalue 3.59 × 10^−15
  log2 (TD/Ctrl) JUN: 1.216
Qvalue 3.61 × 10^−6
  log2 (TD/Ctrl) PIM1: 1.177
Qvalue 3.63 × 10^−4
  log2 (TD/Ctrl) CSGALNACT1: 2.392
Qvalue 3.74 × 10^−4
  log2 (TD/Ctrl) MN1: 1.348
Qvalue 3.77 × 10^−12
  log2 (TD/Ctrl) ATF3: 2.527
Qvalue 3.78 × 10^−13
  log2 (TD/Ctrl) CASP9: 1.439
Qvalue 3.88 × 10^−22
  log2 (TD/Ctrl) C11orf96: 4.461
Qvalue 3.94 × 10^−5
  log2 (TD/Ctrl) FHL3: 1.045
Qvalue 4.00 × 10^−5
  log2 (TD/Ctrl) MRC2: 1.244
Qvalue 4.00 × 10^−6
  log2 (TD/Ctrl) SH2D3C: 2.239

— article PMC12073449, “Development of a Mechanism of Action-Reflective Cell-Based Reporter Gene Assay for Measuring Bioactivities of Therapeutic Glucagon-like Peptide-2 Analogues” (Molecules, 2025)
